According to patent US20130266526A1, “DIHYDROXYFUMARIC ACID DERIVATIVES AND THE USE THEREOF FOR SKIN LIGHTENING” (MERCK PATENT GMBH, priority 2010, published 2013):
“Also recorded” adds a separate entry of the source.

Tests used:
[1] = tested on: B16V mouse melanoma cells; test: B16 V mouse melanoma cell test (melanin content after alpha-MSH stimulation); format: cell-based; settings: for Relative melanin content in %: DMSO control = 100, alpha-MSH 10^-8 M, absorption 405 nm
Protocol: B16V mouse melanoma cells (manufacturer: DSMZ; Article No.: ACC370) are transferred into RPMI medium (Invitrogen, Article No.: 31870), to which 10% of FBS (foetal bovine serum; Invitrogen, Article No.: 10499044), 2 mM L-glutamine (Invitrogen, Article No: 25030) and 1 mM sodium pyruvate (Invitrogen, Article No.: 11360) had additionally been added, and incubated at 37° C. and 5% CO2 for 72 h. The medium is separated off, and the cells are washed once with 10 ml of DPBS (Dulbecco's phosphate-buffered salines; Invitrogen, Article No.: 14190), and the medium is subsequently removed by suction. 1 ml of HyQtase cell detachment solution (Hyclone, Article No.: SV30030.01) is added to the cells. The bottle is swirled a number of times, and the HyQtase cell detachment solution is subsequently removed by suction. The cells are then incubated in the incubator at 37° C. and 5% CO2 for 5 min. The cells are taken up in the modified RPMI medium (see above), and the cell count is determined. To this end, the cells are stained with Trypan Blue and counted in a Neubauer counting chamber. The cells are subsequently sown out again in the modified RPMI medium (see above) in a defined cell count of 80,000 cells per well (6-well clear plate, TCT, PS (Nunc)).
The cells are incubated at 37° C. and 5% CO2 for 24 h, the medium is then removed. 1980 μl of the dilution of the respective substance to be tested are subsequently added. For this substance dilution, the substance is dissolved in DMSO and subsequently filtered through a sterile filter (0.2 μm, Millipore, Article No. SLLG013SL). The solution is then diluted with the modified RPMI medium (see above, but in this case the FBS content is only 5%) in such a way that the final concentration of the substance dilution has the desired final concentration as shown in Table 1.
20 μl of an alpha-MSH solution (alpha-melanocyte-stimulating hormone, DMSO, Sigma, Article No.: D2650) are then added, so that the alpha-MSH concentration in the well is 10^−8 M. The plate is subsequently incubated again at 37° C. and 5% CO2 for 24 h. The process described in this section is repeated a further twice in total.
After the final incubation period, the medium is removed by suction, and the cells are washed with 1000 μl of DPBS (Invitrogen, Article No.: 14190). The medium is again removed by suction. […] of HyQtase cell detachment solution (Hyclone, Article No.: SV30030.01) are added to the cells. The 6-well plate is swirled a number of times, and the HyQtase cell detachment solution is subsequently removed by suction. The cells are then incubated in the incubator at 37° C. and 5% CO2 for 5 min. The cells are taken up in 1.5 ml of DPBS (Invitrogen, Article No.: 14190) and transferred into a cup (SARSTEDT, Ref. 72.692.005). The cell count is subsequently determined. To this end, the cells are stained with Trypan Blue and counted in a Neubauer counting chamber. The cells centrifuged for 1 min at 3500 g. The pellets obtained are photographed, and the supernatant is subsequently removed by suction. The pellets are dissolved in 1 ml of 1N NaOH at 80° C. for 1 h and then cooled to RT. Four times 200 μl per cup (as quadruple determination) are subsequently pipetted into a 96-well plate (VWR, Article No.: 4100636981), and the absorption at a wavelength of 405 nm is determined (Safire, Tecan). The content of melanin can be determined in this way by means of a calibration line.

melanin = settings: substance alone; Example 5 of WO 01/66105 A1; cited from earlier work

O.O.O=C(O)/C(O)=C(\O)C(=O)O [Dihydroxyfumaric acid dihydrate]
Relative melanin content in % ([1]; 0.5 mM): 13.4% | skin-lightening action in comparison with known active compounds ([1]; comparison of the working example (Table 1), dihydrate): exceeds the action of lactic acid, glycolic acid and even kojic acid by a multiple; also recorded: higher compared with the hydroxy acids lactic acid and glycolic acid

O=c1cc(CO)occ1O [Kojic acid]
Relative melanin content in % ([1]; 1 mM): 59%

O=C1O[C@H]([C@@H](O)CO)C(O)=C1O [Ascorbic acid]
Relative melanin content in % ([1]; 3 mM): 77.4%

CC(O)C(=O)O (stereo not shown) [Lactic acid]
Relative melanin content in % ([1]; 11.1 mM): 57.8% | melanin-reducing action (melanin): 40%

O=C(O)CO [Glycolic acid]
Relative melanin content in % ([1]; 0.5 mM): 67.3%
